Data on two compounds can be found in US8729120B2, “Adjunctive therapy for depression” (SK Biopharmaceuticals Co., Ltd., priority 2004, dated 2014).

Common to all, as to type: in vivo
The test system of one assay is humans. In words: Placebo controlled study in humans, change in total MADRS (ITT, LOCF). As to conditions: for Change from Baseline in total MADRS, Mean (SD): ITT LOCF, depression rating scale.
Assay [1] has as its system Mice. In words: Reserpine Reversal in Mice.
The test system of assay [2] is Mice. Briefly: Tetrabenazine Reversal in Mice.
Assay [3] relates to Mice. In words: Reversal of Isolation-Induced Aggression in Mice.
For assay [4], the system named is Mice. Briefly: Tail Suspension in Mice.
In assay [5] the test system is Mice. In words: Forced-Swim Test (FST) in Mice.
The test system of another assay is Rats. In words: Forced-Swim Test (FST) in Rats.

The structures appear in SMILES notation.

For `Fc1ccc([C@@H]2CCNC[C@H]2COc2ccc3c(c2)OCO3)cc1` (relative stereo) [Paroxetine, trans-(−)-3-[(1,3-benzodioxol-5-yloxy)methyl]-4-(4-fluorophenyl)piperidine, reference compound], the “Change from Baseline in total MADRS, Mean (SD)” value with humans (20 mg) is −14.1 (10.71).
Turning to `Cl.NC(=O)OC[C@H](N)Cc1ccccc1` [Test Compound, (R)-(beta-amino-benzenepropyl) carbamate monohydrochloric acid], the “Change from Baseline in total MADRS, Mean (SD)” value in the assay on humans (200 mg) was −12.1 (11.12); in the assay on humans (400 mg) it was −12.4 (11.12). In the assay with humans (Table 1), the “decrease in depression rating scores (MADRS) compared to placebo and paroxetine” value is reported as “greater decrease in depression rating scores (MADRS) as compared to placebo but not as great as the active control, paroxetine”. In the assay with humans (compared with Paroxetine), the “antidepressant effects in large placebo controlled study” value is listed as “significant antidepressant effects”. Further, the antidepressant effects result with Mice [1], in the assay on Mice [2], in the assay on Mice [3], with Mice [4], in the assay on Mice [5] and in the assay with Rats was “demonstrated antidepressant effects” throughout.
